Calls of active or inactive are those of the source. No cut-off for these calls is given here.
Legend:
HCC827 = test: Antiproliferative activity against human HCC827 cells assessed as cell growth inhibition incubated for 3 days by CCK-8 assay; type: functional; settings: HCC827, 72 h, time 3 day
NCI-H1299 = test: Antiproliferative activity against human NCI-H1299 cells expressing wild type EGFR assessed as cell growth inhibition at 1 uM in presence of pictilisib; type: functional, cell-based
OVCAR-8 = test: Antiproliferative activity against human OVCAR-8 cells expressing wild type EGFR assessed as cell growth inhibition at 1 uM in presence of pictilisib; type: functional, cell-based
[1] = system: Protein cereblon/Epidermal growth factor receptor (Homo sapiens), P00533+Q96SW2 [UNDEFINED MUTATION]; test: PROTAC activity at CRBN/EGFR Del19 mutant in human HCC827 cells assessed as EGFR degradation treated after 8 hrs under serum starvation condition at 100 nM measured after 16 hrs by Western blotting analysis; type: cell-based
Chain of Protein cereblon/Epidermal growth factor receptor (Homo sapiens), P00533+Q96SW2 [UNDEFINED MUTATION] (P00533 whole entry, looked up, stated change not applied): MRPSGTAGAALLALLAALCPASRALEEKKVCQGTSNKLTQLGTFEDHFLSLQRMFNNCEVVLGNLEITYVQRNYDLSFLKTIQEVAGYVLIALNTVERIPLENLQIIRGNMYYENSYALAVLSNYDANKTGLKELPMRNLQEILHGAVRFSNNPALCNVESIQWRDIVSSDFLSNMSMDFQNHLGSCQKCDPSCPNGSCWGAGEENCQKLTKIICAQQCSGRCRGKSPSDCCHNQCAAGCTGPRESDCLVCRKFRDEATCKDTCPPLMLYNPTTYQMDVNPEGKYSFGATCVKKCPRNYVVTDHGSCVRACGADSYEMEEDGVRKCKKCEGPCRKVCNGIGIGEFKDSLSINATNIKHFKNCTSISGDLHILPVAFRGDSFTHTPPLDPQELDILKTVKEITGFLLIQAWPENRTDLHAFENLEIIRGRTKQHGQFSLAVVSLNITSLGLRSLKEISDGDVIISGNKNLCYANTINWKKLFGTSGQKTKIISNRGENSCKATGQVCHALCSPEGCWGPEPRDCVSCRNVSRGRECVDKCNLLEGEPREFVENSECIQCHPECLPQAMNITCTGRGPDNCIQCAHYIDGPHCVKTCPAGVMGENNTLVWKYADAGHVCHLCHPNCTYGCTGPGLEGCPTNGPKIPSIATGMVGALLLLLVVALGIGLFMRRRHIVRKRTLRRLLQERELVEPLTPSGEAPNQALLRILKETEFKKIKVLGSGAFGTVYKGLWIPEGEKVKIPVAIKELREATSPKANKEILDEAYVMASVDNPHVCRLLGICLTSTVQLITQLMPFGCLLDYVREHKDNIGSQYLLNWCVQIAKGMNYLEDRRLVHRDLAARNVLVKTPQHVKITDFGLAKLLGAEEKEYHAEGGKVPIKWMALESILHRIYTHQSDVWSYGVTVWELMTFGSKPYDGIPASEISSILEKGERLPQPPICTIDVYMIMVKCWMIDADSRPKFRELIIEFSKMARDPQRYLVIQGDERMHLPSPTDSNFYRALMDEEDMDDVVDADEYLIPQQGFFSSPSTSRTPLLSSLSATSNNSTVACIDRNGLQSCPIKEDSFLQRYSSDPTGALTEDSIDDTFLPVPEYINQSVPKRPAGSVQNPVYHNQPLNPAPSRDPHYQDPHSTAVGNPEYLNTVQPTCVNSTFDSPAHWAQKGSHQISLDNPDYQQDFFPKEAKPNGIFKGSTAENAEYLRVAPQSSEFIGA
Chain of Protein cereblon/Epidermal growth factor receptor (Homo sapiens), P00533+Q96SW2 [UNDEFINED MUTATION] (Q96SW2 whole entry, looked up, stated change not applied): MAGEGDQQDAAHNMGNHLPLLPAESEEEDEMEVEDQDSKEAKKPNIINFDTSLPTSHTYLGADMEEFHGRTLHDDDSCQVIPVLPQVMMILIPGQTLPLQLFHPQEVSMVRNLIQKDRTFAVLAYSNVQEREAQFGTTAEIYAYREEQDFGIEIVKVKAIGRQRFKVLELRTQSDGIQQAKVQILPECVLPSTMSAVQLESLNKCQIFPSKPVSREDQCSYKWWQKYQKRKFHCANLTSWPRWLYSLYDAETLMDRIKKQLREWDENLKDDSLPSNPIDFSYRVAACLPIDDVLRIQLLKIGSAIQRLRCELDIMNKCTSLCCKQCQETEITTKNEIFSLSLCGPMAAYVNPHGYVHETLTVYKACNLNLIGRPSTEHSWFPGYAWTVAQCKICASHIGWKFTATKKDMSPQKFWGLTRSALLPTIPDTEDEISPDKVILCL

[2] = system: Protein cereblon/Epidermal growth factor receptor (Homo sapiens), P00533+Q96SW2 [UNDEFINED MUTATION]; test: PROTAC activity at CRBN/EGFR Del19 mutant in human HCC827 cells assessed as EGFR degradation treated after 8 hrs under serum starvation condition at 1 uM measured after 16 hrs by Western blotting analysis; type: cell-based
[3] = biological target: T1, von Hippel-Lindau disease tumor suppressor/Epidermal growth factor receptor (Homo sapiens, UniProt P00533+P40337); test: PROTAC activity at VHL/EGFR Del19 mutant in human HCC827 cells; type: cell-based
[4] = system: von Hippel-Lindau disease tumor suppressor/Epidermal growth factor receptor (Homo sapiens), P00533+P40337 [UNDEFINED MUTATION]; test: PROTAC activity at VHL/EGFR Del19 mutant in human HCC827 cells assessed as EGFR degradation treated after 8 hrs under serum starvation condition at 10 to 1000 nM measured after 16 hrs by Western blotting analysis; type: cell-based; settings: dose 10-1000 nM
Chain of von Hippel-Lindau disease tumor suppressor/Epidermal growth factor receptor (Homo sapiens), P00533+P40337 [UNDEFINED MUTATION] (P00533 whole entry, looked up, stated change not applied, the tested form may be a part): as the sequence (P00533 whole entry, looked up, stated change not applied) above
Chain of von Hippel-Lindau disease tumor suppressor/Epidermal growth factor receptor (Homo sapiens), P00533+P40337 [UNDEFINED MUTATION] (P40337 whole entry, looked up, stated change not applied, the tested form may be a part): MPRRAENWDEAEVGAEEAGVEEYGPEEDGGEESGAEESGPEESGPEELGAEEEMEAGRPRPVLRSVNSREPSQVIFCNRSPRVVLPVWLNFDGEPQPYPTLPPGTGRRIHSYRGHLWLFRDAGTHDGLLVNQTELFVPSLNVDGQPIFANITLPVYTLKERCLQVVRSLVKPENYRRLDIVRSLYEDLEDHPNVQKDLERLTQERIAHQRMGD

[5] = biological target: Epidermal growth factor receptor (Homo sapiens, UniProt P00533); test: Binding affinity to human wild type partial length EGFR (R669 to V1011 residues) expressed in bacterial expression system assessed as immobilized ligand binding by competitive binding assay
[6] = biological target: Epidermal growth factor receptor (Homo sapiens, UniProt P00533, L858R); test: Binding affinity to human partial length EGFR (R669 to V1011 residues) L858R mutant expressed in bacterial expression system assessed as immobilized ligand binding by competitive binding assay
Chain of Epidermal growth factor receptor (Homo sapiens, UniProt P00533, L858R) (P00533 25-1210 L858R limits assumed): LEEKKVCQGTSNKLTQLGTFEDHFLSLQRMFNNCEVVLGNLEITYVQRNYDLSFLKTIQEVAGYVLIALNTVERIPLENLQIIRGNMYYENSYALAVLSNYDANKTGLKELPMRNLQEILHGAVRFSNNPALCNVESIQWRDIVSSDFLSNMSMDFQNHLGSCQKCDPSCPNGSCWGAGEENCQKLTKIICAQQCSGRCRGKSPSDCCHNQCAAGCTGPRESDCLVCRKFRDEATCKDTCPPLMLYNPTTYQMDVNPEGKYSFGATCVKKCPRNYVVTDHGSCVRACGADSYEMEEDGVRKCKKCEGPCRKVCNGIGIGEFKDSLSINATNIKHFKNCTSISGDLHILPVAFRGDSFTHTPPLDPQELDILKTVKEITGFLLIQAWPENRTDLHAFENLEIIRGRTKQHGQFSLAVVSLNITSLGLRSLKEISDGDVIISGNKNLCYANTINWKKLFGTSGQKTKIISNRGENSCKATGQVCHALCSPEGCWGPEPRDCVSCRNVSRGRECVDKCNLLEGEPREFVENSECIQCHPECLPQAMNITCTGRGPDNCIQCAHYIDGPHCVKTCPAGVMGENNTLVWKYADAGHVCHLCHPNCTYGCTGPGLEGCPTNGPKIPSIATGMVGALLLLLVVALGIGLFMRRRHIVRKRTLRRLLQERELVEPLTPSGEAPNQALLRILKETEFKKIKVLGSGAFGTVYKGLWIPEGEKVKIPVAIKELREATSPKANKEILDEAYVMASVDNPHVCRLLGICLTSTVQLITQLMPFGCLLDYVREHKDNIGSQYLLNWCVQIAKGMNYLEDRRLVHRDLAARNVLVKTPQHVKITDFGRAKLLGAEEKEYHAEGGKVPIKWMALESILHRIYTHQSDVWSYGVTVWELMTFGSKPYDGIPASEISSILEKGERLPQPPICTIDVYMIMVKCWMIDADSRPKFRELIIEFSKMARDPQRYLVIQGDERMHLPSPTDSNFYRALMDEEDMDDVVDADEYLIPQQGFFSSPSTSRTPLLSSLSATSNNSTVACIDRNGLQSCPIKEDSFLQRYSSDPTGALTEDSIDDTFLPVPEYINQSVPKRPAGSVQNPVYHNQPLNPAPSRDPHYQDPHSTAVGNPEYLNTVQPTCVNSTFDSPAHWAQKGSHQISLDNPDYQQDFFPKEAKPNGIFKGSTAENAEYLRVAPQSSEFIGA

[7] = biological target: T1, von Hippel-Lindau disease tumor suppressor/Epidermal growth factor receptor; test: PROTAC activity at VHL/wild type EGFR in human OVCAR-8 cells assessed as EGFR degradation measured after 24 hrs by Immunoblotting analysis; type: cell-based

SMILES | GI50 (HCC827) [nM] | Activity [4] | other results
COc1cc2ncnc(Nc3ccc(F)c(Cl)c3)c2cc1OCCCN1CCN(CCC(=O)NCCCCCCCCOc2cccc3c2C(=O)N(C2CCC(=O)NC2=O)C3)CC1 (stereo unspecified) | 660 |  | Activity (NCI-H1299): Active; Activity (OVCAR-8): Active
COc1cc2ncnc(Nc3ccc(F)c(Cl)c3)c2cc1OCCCN1CCN(C(=O)CCCCNC(=O)C[C@H](NC(=O)[C@@H]2C[C@@H](O)CN2C(=O)[C@@H](c2cc(C)no2)C(C)C)c2ccc(-c3scnc3C)cc2)CC1 | 770 |  | 
COc1cc2ncnc(Nc3ccc(F)c(Cl)c3)c2cc1OCCCN1CCN(CCC(=O)NCCCCCCCCNc2ccc3c(c2)C(=O)N(C2CCC(=O)NC2=O)C3=O)CC1 (stereo unspecified) |  |  | Activity [1]: Active; Activity [2]: Active
Cc1ncsc1-c1ccc(CNC(=O)[C@@H]2C[C@@H](O)CN2C(=O)[C@@H](NC(=O)CCCCCCCCCCn2cc(COc3cc4ncnc(Nc5ccc(F)c(Cl)c5)c4cc3NC(=O)/C=C/CN3CCCCC3)nn2)C(C)(C)C)cc1 |  |  | DC50 [3]: 3.6 nM
COc1cc2ncnc(Nc3ccc(F)c(Cl)c3)c2cc1OCCCN1CCN(C(=O)CCCNC(=O)C[C@H](NC(=O)[C@@H]2C[C@@H](O)CN2C(=O)[C@@H](c2cc(C)no2)C(C)C)c2ccc(-c3scnc3C)cc2)CC1 | 880 | Active | 
COc1cc2ncnc(Nc3ccc(F)c(Cl)c3)c2cc1OCCCN1CCN(C(=O)CCCCCCCCCCNC(=O)C[C@H](NC(=O)[C@@H]2C[C@@H](O)CN2C(=O)[C@@H](c2cc(C)no2)C(C)C)c2ccc(-c3scnc3C)cc2)CC1 | 250 |  | Activity (NCI-H1299): Active; Activity (OVCAR-8): Active
COc1cc2ncnc(Nc3ccc(F)c(Cl)c3)c2cc1OCCCN1CCN(C(=O)C[C@H](NC(=O)[C@@H]2C[C@@H](O)CN2C(=O)[C@@H](c2cc(C)no2)C(C)C)c2ccc(-c3scnc3C)cc2)CC1 | 730 |  | 
COc1cc2ncnc(Nc3ccc(F)c(Cl)c3)c2cc1OCCCN1CCN(C(=O)CCOCCOCCOCCOCCOCCNc2ccc3c(c2)C(=O)N(C2CCC(=O)N(C)C2=O)C3=O)CC1 (stereo unspecified) |  |  | Kd [5]: 6.4 nM; Kd [6]: 2.9 nM
COc1cc2ncnc(Nc3ccc(F)c(Cl)c3)c2cc1OCCCN1CCN(C(=O)CCCCCCCCCC(=O)N[C@H](C(=O)N2C[C@H](O)C[C@H]2C(=O)NCc2ccc(-c3scnc3C)cc2)C(C)(C)C)CC1 | 230 |  | Activity (NCI-H1299): Active; Activity (OVCAR-8): Active
COc1cc2ncnc(Nc3ccc(F)c(Cl)c3)c2cc1OCCCN1CCN(C(=O)CCCCCCCCNC(=O)C[C@H](NC(=O)[C@@H]2C[C@@H](O)CN2C(=O)[C@@H](c2cc(C)no2)C(C)C)c2ccc(-c3scnc3C)cc2)CC1 | 460 | Active | 
COc1cc2ncnc(Nc3ccc(F)c(Cl)c3)c2cc1OCCCN1CCN(C(=O)CCNC(=O)C[C@H](NC(=O)[C@@H]2C[C@@H](O)CN2C(=O)[C@@H](NC(=O)C2(F)CC2)C(C)(C)C)c2ccc(-c3scnc3C)cc2)CC1 | 1020 |  | 
COc1cc2ncnc(Nc3ccc(F)c(Cl)c3)c2cc1OCCCN1CCN(C(=O)CCOCCOCCOCCOCCNc2ccc3c(c2)C(=O)N(C2CCC(=O)NC2=O)C3=O)CC1 (stereo unspecified) | 930 |  | 
COc1cc2ncnc(Nc3ccc(F)c(Cl)c3)c2cc1OCCCN1CCN(C(=O)CCCCCCCCCNC(=O)C[C@H](NC(=O)[C@@H]2C[C@@H](O)CN2C(=O)[C@@H](c2cc(C)no2)C(C)C)c2ccc(-c3scnc3C)cc2)CC1 | 590 | Active | 
COc1cc2ncnc(Nc3ccc(F)c(Cl)c3)c2cc1OCCCN1CCN(C(=O)CCOCCOCCOCCOCCOCCNc2ccc3c(c2)C(=O)N(C2CCC(=O)NC2=O)C3=O)CC1 (stereo unspecified) | 870 |  | Activity (NCI-H1299): Active; Activity (OVCAR-8): Active
COc1cc2ncnc(Nc3ccc(F)c(Cl)c3)c2cc1OCCCN1CCN(C(=O)CNC(=O)C[C@H](NC(=O)[C@@H]2C[C@@H](O)CN2C(=O)[C@@H](c2cc(C)no2)C(C)C)c2ccc(-c3scnc3C)cc2)CC1 | 710 | Active | 
Cc1ncsc1-c1ccc(CNC(=O)[C@@H]2C[C@@H](O)CN2C(=O)[C@@H](NC(=O)COCCOCCOc2ccc(-c3ccc4ncnc(Nc5ccc(OCc6cccc(F)c6)c(Cl)c5)c4c3)cc2)C(C)(C)C)cc1 |  |  | DC50 [7]: 39 nM
COc1cc2ncnc(Nc3ccc(F)c(Cl)c3)c2cc1OCCCN1CCN(C(=O)CCCCCCCNC(=O)C[C@H](NC(=O)[C@@H]2C[C@@H](O)CN2C(=O)[C@@H](c2cc(C)no2)C(C)C)c2ccc(-c3scnc3C)cc2)CC1 | 610 | Active | 
COc1cc2ncnc(Nc3ccc(F)c(Cl)c3)c2cc1OCCCN1CCN(C(=O)CCCCCNC(=O)C[C@H](NC(=O)[C@@H]2C[C@@H](O)CN2C(=O)[C@@H](c2cc(C)no2)C(C)C)c2ccc(-c3scnc3C)cc2)CC1 | 790 | Active | 
COc1cc2ncnc(Nc3ccc(F)c(Cl)c3)c2cc1OCCCN1CCN(C(=O)CCNC(=O)C[C@H](NC(=O)[C@@H]2C[C@@H](O)CN2C(=O)[C@@H](c2cc(C)no2)C(C)C)c2ccc(-c3scnc3C)cc2)CC1 | 780 | Active | 

— ChEMBL document CHEMBL5131542, “Exploring Degradation of Mutant and Wild-Type Epidermal Growth Factor Receptors Induced by Proteolysis-Targeting Chimeras” (J Med Chem, 2022)
